Experimental data from US9708314B2, “Heterocyclic amide compound” (NISSAN CHEMICAL INDUSTRIES, LTD., priority 2013, dated 2017).

How the values were obtained:
Type in all cases: in vivo
[1] = test system: Chenopodium album; assay: Test Example 4: herbicidal effect by application to foliage (diluvial soil, plastic box); conditions: 320 g/ha; for O (Chenopodium album) herbicidal effect grade: foliage application
How it was run: (§1)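 Scores run from 0 (herbicidal ratio ≤5%) to 5 (≥90%, almost fully withered) and were assessed three weeks after foliar spraying. Seedlings had been raised for 14 days at 25-30° C in sterilized diluvial soil before treatment, with the emulsion diluted in water to the stated g/ha dose.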

[2] = test system: Amaranthus retroflexus; assay: as above; conditions: 320 g/ha; for N (Amaranthus retroflexus) herbicidal effect grade: foliage application
How it was run: as §1

[3] = test system: Setaria viridis; assay: as above; conditions: 320 g/ha; for G (Setaria viridis) herbicidal effect grade: foliage application
How it was run: as §1

[4] = test system: Echinochloa crus-galli var. crus-galli; assay: as above; conditions: 320 g/ha; for H (Echinochloa crus-galli var. crus-galli) herbicidal effect grade: foliage application
How it was run: as §1

[5] = test system: Veronica persica; assay: as above; conditions: 320 g/ha; for R (Veronica persica) herbicidal effect grade: foliage application
How it was run: as §1

[6] = test system: Alopecurus myosuroides; assay: as above; conditions: 320 g/ha; for J (Alopecurus myosuroides) herbicidal effect grade: foliage application
How it was run: as §1

[7] = test system: Abutilon theophrasti; assay: as above; conditions: 320 g/ha; for M (Abutilon theophrasti) herbicidal effect grade: foliage application
How it was run: as §1

[8] = test system: Lolium multiflorum Lam.; assay: as above; conditions: 320 g/ha; for K (Lolium multiflorum Lam.) herbicidal effect grade: foliage application
How it was run: as §1

[9] = test system: Avena fatua; assay: as above; conditions: 320 g/ha; for I (Avena fatua) herbicidal effect grade: foliage application
How it was run: as §1

[10] = test system: Apera spica-venti.; assay: as above; conditions: 320 g/ha; for L (Apera spica-venti.) herbicidal effect grade: foliage application
How it was run: as §1

[11] = test system: Digitaria ciliaris; assay: as above; conditions: 320 g/ha; for F (Digitaria ciliaris) herbicidal effect grade: foliage application
How it was run: as §1

[12] = test system: Stellaria media; assay: as above; conditions: 320 g/ha; for P (Stellaria media) herbicidal effect grade: foliage application
How it was run: as §1

[13] = test system: Galium spurium; assay: as above; conditions: 320 g/ha; for Q (Galium spurium) herbicidal effect grade: foliage application
How it was run: as §1

[14] = test system: Zea mays; assay: Test Example 4: effect on crop by application to foliage (diluvial soil, plastic box); conditions: 320 g/ha; for b (Zea mays) effect on crop grade: foliage application
How it was run: as §1

[15] = test system: Beta vulgaris ssp. vulgaris; assay: as above; conditions: 320 g/ha; for f (Beta vulgaris ssp. vulgaris) effect on crop grade: foliage application
How it was run: as §1

[16] = test system: Glycine max; assay: as above; conditions: 320 g/ha; for c (Glycine max) effect on crop grade: foliage application
How it was run: as §1

[17] = test system: Triticum aestivum; assay: as above; conditions: 320 g/ha; for e (Triticum aestivum) effect on crop grade: foliage application
How it was run: as §1

[18] = test system: Brassica campestris L.; assay: as above; conditions: 320 g/ha; for g (Brassica campestris L.) effect on crop grade: foliage application
How it was run: as §1

[19] = test system: directly sowed Oryza sativa; assay: as above; conditions: 320 g/ha; for d (directly sowed Oryza sativa) effect on crop grade: foliage application
How it was run: as §1

[20] = test system: Cyperus difformis; assay: Test Example 3: herbicidal effect by application to foliage (Wagner pot, water depth 0.1-0.5 cm); conditions: Nineteenth Table; application to foliage; application herbicide amount 320 g/ha
How it was run: (§2)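 Foliar spray, 14-day-old plants, emulsion diluted to target g/ha; rated 3 wk post-application, 0–5 scale (0 ≤5%, 5 ≥90% herbicidal ratio). Greenhouse 25–30 °C, alluvial soil.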

[21] = test system: Echinochloa crus-galli var. crus-galli; assay: as above; conditions: Nineteenth Table; application to foliage; application herbicide amount 320 g/ha
How it was run: as §2

[22] = test system: Leptochloa chinensis; assay: as above; conditions: Nineteenth Table; application to foliage; application herbicide amount 320 g/ha
How it was run: as §2

Compound | E (herbicidal effect grade) [20] | H (herbicidal effect grade) [21] | D (herbicidal effect grade) [22] | O (Chenopodium album) herbicidal effect grade [1] | N (Amaranthus retroflexus) herbicidal effect grade [2] | G (Setaria viridis) herbicidal effect grade [3] | H (Echinochloa crus-galli var. crus-galli) herbicidal effect grade [4] | R (Veronica persica) herbicidal effect grade [5] | J (Alopecurus myosuroides) herbicidal effect grade [6] | M (Abutilon theophrasti) herbicidal effect grade [7] | K (Lolium multiflorum Lam.) herbicidal effect grade [8] | I (Avena fatua) herbicidal effect grade [9] | L (Apera spica-venti.) herbicidal effect grade [10] | F (Digitaria ciliaris) herbicidal effect grade [11] | P (Stellaria media) herbicidal effect grade [12] | Q (Galium spurium) herbicidal effect grade [13] | b (Zea mays) effect on crop grade [14] | f (Beta vulgaris ssp. vulgaris) effect on crop grade [15] | c (Glycine max) effect on crop grade [16] | e (Triticum aestivum) effect on crop grade [17] | further results
C#CCN(C)c1nnc2c(C(=O)Nc3nnnn3C)ccc(C(F)(F)F)n12 [2-094] | 5 (Herbicidal ratio of 90% or more (almost completely withered)) | 5 (Herbicidal ratio of 90% or more (almost completely withered)) | 5 (Herbicidal ratio of 90% or more (almost completely withered)) | – | – | – | – | – | – | – | – | – | – | – | – | – | – | – | – | – | herbicidal effect, O (Chenopodium album) ([1]; application to foliage): 5 (Herbicidal ratio of 90% or more (almost completely withered)); herbicidal effect, N (Amaranthus retroflexus) ([2]; application to foliage): 4 (Herbicidal ratio of 70% or more and less than 90%); herbicidal effect, G (Setaria viridis) ([3]; application to foliage): 4 (Herbicidal ratio of 70% or more and less than 90%); herbicidal effect, H (Echinochloa crus-galli var. crus-galli) ([4]; application to foliage): 5 (Herbicidal ratio of 90% or more (almost completely withered)); herbicidal effect, R (Veronica persica) ([5]; application to foliage): 4 (Herbicidal ratio of 70% or more and less than 90%); herbicidal effect, J (Alopecurus myosuroides) ([6]; application to foliage): 1 (Herbicidal ratio of 5% or more and less than 20%); herbicidal effect, M (Abutilon theophrasti) ([7]; application to foliage): 5 (Herbicidal ratio of 90% or more (almost completely withered)); herbicidal effect, K (Lolium multiflorum Lam.) ([8]; application to foliage): 1 (Herbicidal ratio of 5% or more and less than 20%); herbicidal effect, I (Avena fatua) ([9]; application to foliage): 2 (Herbicidal ratio of 20% or more and less than 40%); herbicidal effect, L (Apera spica-venti.) ([10]; application to foliage): 3 (Herbicidal ratio of 40% or more and less than 70%); herbicidal effect, F (Digitaria ciliaris) ([11]; application to foliage): 4 (Herbicidal ratio of 70% or more and less than 90%); herbicidal effect, P (Stellaria media) ([12]; application to foliage): 5 (Herbicidal ratio of 90% or more (almost completely withered)); herbicidal effect, Q (Galium spurium) ([13]; application to foliage): 3 (Herbicidal ratio of 40% or more and less than 70%); effect on crop, b (Zea mays) ([14]; application to foliage): 3 (Herbicidal ratio of 40% or more and less than 70%); effect on crop, f (Beta vulgaris ssp. vulgaris) ([15]; application to foliage): 5 (Herbicidal ratio of 90% or more (almost completely withered)); effect on crop, c (Glycine max) ([16]; application to foliage): 1 (Herbicidal ratio of 5% or more and less than 20%); effect on crop, e (Triticum aestivum) ([17]; application to foliage): 1 (Herbicidal ratio of 5% or more and less than 20%); effect on crop, g (Brassica campestris L.) ([18]; application to foliage): 4 (Herbicidal ratio of 70% or more and less than 90%); effect on crop, d (directly sowed Oryza sativa) ([19]; application to foliage): 4 (Herbicidal ratio of 70% or more and less than 90%)
COc1cc(OC)cc(-c2nnc3c(C(=O)Nc4nnnn4C)ccc(C(F)(F)F)n23)c1 [2-063] | 5 (Herbicidal ratio of 90% or more (almost completely withered)) | 5 (Herbicidal ratio of 90% or more (almost completely withered)) | 5 (Herbicidal ratio of 90% or more (almost completely withered)) | 5 (Herbicidal ratio of 90% or more (almost completely withered)) | 5 (Herbicidal ratio of 90% or more (almost completely withered)) | 5 (Herbicidal ratio of 90% or more (almost completely withered)) | 5 (Herbicidal ratio of 90% or more (almost completely withered)) | 5 (Herbicidal ratio of 90% or more (almost completely withered)) | 3 (Herbicidal ratio of 40% or more and less than 70%) | 5 (Herbicidal ratio of 90% or more (almost completely withered)) | 3 (Herbicidal ratio of 40% or more and less than 70%) | 4 (Herbicidal ratio of 70% or more and less than 90%) | 3 (Herbicidal ratio of 40% or more and less than 70%) | 5 (Herbicidal ratio of 90% or more (almost completely withered)) | 5 (Herbicidal ratio of 90% or more (almost completely withered)) | 4 (Herbicidal ratio of 70% or more and less than 90%) | 4 (Herbicidal ratio of 70% or more and less than 90%) | 5 (Herbicidal ratio of 90% or more (almost completely withered)) | 3 (Herbicidal ratio of 40% or more and less than 70%) | 3 (Herbicidal ratio of 40% or more and less than 70%) | g (Brassica campestris L.) effect on crop grade [18]: 4 (Herbicidal ratio of 70% or more and less than 90%); d (directly sowed Oryza sativa) effect on crop grade [19]: 4 (Herbicidal ratio of 70% or more and less than 90%)
Cn1nnnc1NC(=O)c1ccc(C(F)(F)F)n2c(-c3cccs3)nnc12 [2-061] | 5 (Herbicidal ratio of 90% or more (almost completely withered)) | 5 (Herbicidal ratio of 90% or more (almost completely withered)) | 5 (Herbicidal ratio of 90% or more (almost completely withered)) | 5 (Herbicidal ratio of 90% or more (almost completely withered)) | 5 (Herbicidal ratio of 90% or more (almost completely withered)) | 5 (Herbicidal ratio of 90% or more (almost completely withered)) | 5 (Herbicidal ratio of 90% or more (almost completely withered)) | 5 (Herbicidal ratio of 90% or more (almost completely withered)) | 3 (Herbicidal ratio of 40% or more and less than 70%) | 4 (Herbicidal ratio of 70% or more and less than 90%) | 4 (Herbicidal ratio of 70% or more and less than 90%) | 4 (Herbicidal ratio of 70% or more and less than 90%) | 3 (Herbicidal ratio of 40% or more and less than 70%) | 5 (Herbicidal ratio of 90% or more (almost completely withered)) | 5 (Herbicidal ratio of 90% or more (almost completely withered)) | 3 (Herbicidal ratio of 40% or more and less than 70%) | 5 (Herbicidal ratio of 90% or more (almost completely withered)) | 5 (Herbicidal ratio of 90% or more (almost completely withered)) | 3 (Herbicidal ratio of 40% or more and less than 70%) | 3 (Herbicidal ratio of 40% or more and less than 70%) | g (Brassica campestris L.) effect on crop grade [18]: 4 (Herbicidal ratio of 70% or more and less than 90%); d (directly sowed Oryza sativa) effect on crop grade [19]: 4 (Herbicidal ratio of 70% or more and less than 90%)
